The subject of series [1] is sulfate-reducing bacteria (SRBs). The series can be described thus: SRB growth test (presence/absence) on unpainted wallboard paper before and after ClO2 fumigation of a house. The class given is cell-based. As to conditions: 20 wall and ceiling cavity locations, 12 of 20 positive before treatment; 13 hours, CT 5336-9727 ppmv-hours, about 45-52% RH. The procedure: SRBs—The efficacy of ClO2 gas in eliminating SRBs from Chinese wallboard material was evaluated by collecting samples of unpainted wallboard paper located inside wall cavities of the home prior to, and immediately after, ClO2 exposure. Unpainted wallboard paper from wall cavities was chosen for SRB testing because preliminary laboratory work done at Sabre's Slingerlands, N.Y. laboratory facility had shown SRBs to be concentrated in this media.
Pre-treatment wallboard paper samples were collected by drilling a two-inch circular core at selected wall and ceiling locations. To avoid damaging vapor barriers present within the home, samples were not collected from any bathroom or laundry room locations. Sample locations were selected to be representative wall cavities within the structure most likely to contain conditions conducive to SRB growth. In total, 20 sample locations were selected. Nine were wall cores and eleven were ceiling cores.
The wallboard holes created through SRB sampling were each sealed using a two-inch rubber expansion plug in order to ensure that ClO2 gas would not penetrate into wall cavities as a consequence of sampling activities.
Post-treatment wallboard paper samples were collected by drilling an identical two-inch circular core approximately one inch away from each of the 20 pre-treatment sample locations. […]
For orientation: Sulforhodamine B stains cellular protein and so reports cell mass.

Series [2] relates to Bacillus atrophaeus spores. The series can be described thus: BI spore strip viability test, strips inside wall cavities during ClO2 fumigation. The class given is cell-based. As to conditions: Bacillus atrophaeus spore strips in wall cavities; incubated seven days; both positive controls grew. The source says:
BI Spore Strips—BI spore strips, each containing an approximate 2.5×103 titer of B. atrophaeus spores, were placed within wall cavities of the structure at the same 20 locations where wallboard samples had been collected, prior to insertion of the 2-inch expansion plugs. The B. atrophaeus species was selected due to its historical use as a biological indicator for ClO2 fumigations
Spore strips are thin cellulose pads that have been impregnated with a defined titer of bacterial spores. Each spore strip is encased in a Tyvek® pouch to allow for effective penetration of fumigant gas yet protect the strip from contamination by external sources. The BIs were obtained from SGM Biotech Inc., 10 Evergreen Drive, Suite E, Bozeman, Mont. (Lot #ACD-113e). All BIs were supplied from the same product batch in order to ensure uniformity in spore titer. Relevant production QA/QC data for the specific lot number have been kept on file for future reference.
All BIs were retrieved promptly following fumigation and sent to Sabre's Slingerlands, N.Y. laboratory facility for analysis. Each spore strip was aseptically placed in a growth media tube containing 15 milliliters of trypticase soy broth (BD Diagnostics product #221823, Lot # 7337460) and incubated at 37 degrees Centigrade. Spore strips were evaluated daily for the presence or absence of indicator organism growth for a total of seven days. […]

Series [3] can be described thus: Olfactory observation of reduced-sulfur odors before and after treatment. As to conditions: Sabre personnel and independent observers; faint swimming pool like scent remained. From the text: Subjective Odor Elimination—Reduced-sulfur compounds odors are extremely noxious and can be detected by the human olfactory (i.e. odor) sense at levels which are at or below the detection limits of sophisticated analytical instruments. As such, the olfactory senses of both Sabre personnel and independent observers were employed both pre- and post-treatment to gauge the effectiveness of ClO2 in ridding the test structure of reduced-sulfur compound odors.
Odor levels emanating from within the structure were observed both pre- and post-treatment for the “putrid” characteristic commonly associated with reduced-sulfur gases such as hydrogen sulfide, carbonyl sulfide and carbon disulfide that have been definitively shown by an FDOH study as being released from Chinese wallboard.

The subject of a further series is SRBs and sulfur bacteria. Kind of series: Chlorine dioxide fumigation of Chinese wallboard, SRB kill. The class given is cell-based. As to conditions: 65% RH and 65° F., enclosed structure. How it is done: Two square ([…]) samples of ⅝ inch Chinese wall board are collected from the structure that reported odor issues from different areas of the structure. […] The samples are split into four 25 cm×25 cm squares with the exposed ends of the sheetrock taped and painted with the same paint used within the structure. Two squares from each sample are placed into a chlorine dioxide fumigation chamber and fumigated with chlorine dioxide to a CT value of 9000 ppmv hours at 65% RH and 65° F. The other two squares from each sample are held in sealed bags as test blanks.
Upon completion of the test, each of the samples can be sampled as follows: Each core sample is homogenized in 10 ml of an anaerobic SRB broth, and 1 ml of the broth is transferred to 10 ml of broth in an anaerobic container and diluted serially out to a 104th dilution. The broth bottles are incubated at 25° C. for 21 days. Each day growth is recorded, and a lab blank negative control is performed on the initial broth.

For series [4] the following is noted: after fumigation, visual.
Description: The corrosivity potential of ClO2 on metals and bleaching potential of ClO2 on household carpeting were evaluated through pre- and post treatment visual observations made throughout the structure.
Corrosivity potential was assessed by observation of typical metal items present within the structure (e.g. screws, door hinges, HVAC system components, etc.). […] Each piece of copper was “scuffed” clean prior to fumigation to ensure that any changes in the metal due to ClO2 exposure would be readily recognizable. Photographs were taken of the copper pipe pieces before and after treatment to document visual observations made.
For series [5] the following is noted: after fumigation, side-by-side with untreated carpet.
Description: Bleaching potential of ClO2 was assessed by observation of carpet color and brightness throughout the structure both pre- and post-treatment. A piece of carpeting was also removed from a closet within the structure prior to fumigation and used for direct visual comparison with treated carpet following completion of the process.

In the case of `[O][Cl+][O-]` [ClO2, chlorine dioxide], in series [1], the “SRB growth after ClO2 treatment” value is recorded as “negative for SRB growth”. In addition, the “Surrogate test organism growth on BI spore strips after ClO2 treatment” value in series [2] was “negative for surrogate test organism growth”. In series [3], the “Reduced-sulfur gas odors after fumigation” value is listed as “completely eliminated”. In addition, the “CT of fumigation that eliminates growth of SRBs and sulfur bacteria and oxidizes reactive sulfides” value with SRBs and sulfur bacteria was “about 9000 ppmv hours”. In series [4], the “Corrosive effect on common metal items in the structure” value is listed as “no corrosive effect was visible”. In addition, the “Changes in scuffed copper pipe pieces” value in series [4] (some pieces had a gold-like tint) is “no changes were observed”. In addition, the “Bleaching effect on carpet color and brightness” value in series [5] is reported as “no meaningful bleaching effect”.

Values taken from patent publication US20100278687A1, “R[…] GYPSUM BOARD USING GASEOUS CHLORINE DIOXIDE” (SABRE INTELLECTUAL PROPERTY HOLDINGS COMPANY, LLC., priority 2009, published 2010).
